Source: US6699676B1, “Uses of ouabain and ouabain-like molecules in apoptosis related pathologies” (Corporation du Centre de Recherche du Centre, Hospitalier …, priority 1999, dated 2004)

How the values were obtained:
VSMC-E1A = experiment: Chromatin cleavage assay in VSMC-E1A; format: cell-based, rat
Experimental: FIG. 2. Effect of ouabain on chromatin cleavage in VSMC-E1A. (A) Kinetics of the accumulation of chromatin fragments in control (curves 1, 3) and ouabain-treated (curves 2, 4) VSMC-E1A in the presence of 10% calf serum (CS, curves 1, 2) or in CS-free medium (curves 3, 4). Mean values ±S.E. obtained in experiments performed in quadruplicate are given. (B) Content of chromatin fragments in VSMC-E1A subjected to 6 hr of incubation in serum-supplied medium with or without 1 mM ouabain, 0.25 μM staurosporine, 1 μM okadaic acid and 350 mM mannitol. Mean values±S.E. obtained in 3 experiments performed in quadruplicate are given. ★, ★★ p<0.05 and 0.001 compared to ouabain-untreated cells. In both experiments, ouabain was added 1 hour before triggering of apoptosis.
Cells were incubated in K^+-containing medium consisting of 91 mM NaCl, 5 mM KCl, 0.9 mM NaH2PO4, 44 mM NaHCO3, 1.8 mM CaCl2, 0.8 mM MgCl2, 33 mM HEPES and 5 mM D-glucose (pH 7.4) (lines 1 and 2) or in K^+-depleted medium (equimolar substitution of KCl by NaCl, line 3) with or without 10% calf serum (CS) and 1 mM ouabain as indicated. In experiments with VSMC-MYC and VSMC-E1A, cells were preincubated for 1 hr with ouabain or with K^+-depleted medium in the presence of CS and then subjected to treatment with serum-free media. After 24 hours (VSMC) or 6 hours (VSMC-MYC and VSMC-E1A), the content of chromatin fragments was measured as described in Experimental Procedures. Mean values±S.E. obtained in 3 experiments performed in quadruplicate (VSMC) or triplicate (VSMC-MYC, VSMC-E1A) are given. ★, ★★ p<0.05 and 0.001 compared to the controls.
To estimate chromatin cleavage, cells were incubated for 1 hr in the presence of 10% calf serum (CS) in the control solution (DMEM, [Na^+]=137 mM; [K^+]=5 mM—line 1) or under equimolar substitution of NaCl by KCl ([Na^+]=14 mM; [K^+]=128 mM—line 2) with or without 1 mM ouabain and then for an additional 6 hours in the same media with or without CS. Intracellular Na^+ and K^+ content was measured as steady-state distribution of isotopes after 24 hours preincubation of cells in control Na^+-enriched solution containing 0.5 μCi/ml ^86Rb or 2 μCilml ^22Na, and additional 6 hours incubation in Na^+—(line 1) or K^+—(line 2) enriched medium, containing 10% CS and isotopes with the same specific activity with or without 1 mM ouabain. For more details see Experimental Procedures. Mean values±S.E. obtained in 3 experiments performed in triplicate (ion content) or quadruplicate (chromatin cleavage) are given. ★p<0.001 compared to ouabain-untreated cells.
VSMC-E1A cells were pretreated with compounds indicated in the left column during 2 hours in DMEM containing 10% calf serum and then additional 3 hours in the absence or presence of calf serum. The increment of the content of chromatin fragments triggered by serum withdrawal in control cells was taken as 100%. Means+S.E. from experiments performed with quadruplicate are given. ★p<0.001 as compared to control.
Cells. VSMC were obtained by explant methods from aortas of 10- to 13-week-old male rats as described previously (17), cultured in DMEM with 10% calf serum, 100 U/ml penicillin, 100 µg/ml streptomycin and used between 10 to 16 passages. Cells transfected with c-myc (VSMC-MYC) and E1A-adenovirus (VSMC-E1A) were obtained in accordance with a previously-described protocol (18,19) and were cultured in the same medium with the addition of 500 µg/ml genticin. Jurkat cells were obtained from the American Type Culture Collection and cultured in RPMI 1640 medium supplied with 10% calf serum, antibiotics, sodium pyruvate, glutamate and β-mercaptoethanol.
Chromatin cleavage assay. Chromatin cleavage in VSMC was estimated by a technique described previously in detail (10). Briefly, VSMC grown in 24-well dishes were labeled for 24 hours in serum-supplied DMEM with [^3H]-thymidine (1 μCi/ml), washed with 2×2 ml of DMEM and incubated in serum-supplied DMEM. […]

caspase-3 = experiment: Caspase-3 activity in treated Jurkat cells; format: cell-based, human; settings: for increase of caspase-3 activity: 3 hours, Fas ligand 100 ng/ml, staurosporine 0.25 μM, mannitol 350 mM
Experimental: FIG. 5. Effect of ouabain on caspase-3 activity in VSMC-E1A (A) and Jurkat cells (B). VSMC-E1A and Jurkat cells were pretreated with 1 mM ouabain for 1 and 2 hours, respectively, and the additions indicated below the bars were delivered in media with 10% calf serum and with the baseline (137/5) or inverse (14/128) [Na^+]o/[K^+]o ratio for 6 (VSMC-E1A) or 3 hours (Jurkat cells). In experiments with VSMC-E1A, calf serum (CS) was omitted where indicated (−). Abbreviations: staur.—staurosporine (0.25 μM), ok.ac.—okadaic acid (1 μM), mann.—mannitol (350 mM); Fas-L—Fas ligand (100 ng/ml). Mean values±S.E. obtained in experiments performed in quadruplicate (A) or triplicate (B) are given. ★p<0.001 compared to ouabain-untreated cells.
Caspase activity. VSMC-E1A seeded in 20 cm^2 flasks and treated as indicated in FIG. 5 were scratched, transferred to centrifuge tubes, washed twice with PBS and lysed in 0.5 ml of buffer A contaming 50 mM tris-HCl (pH 7.4), 5 mM MgCl2, 1 mM EGTA and 0.1% CHAPS. Then, 50-100 μl of cell lysate was mixed with 600 μl of buffer A containing 1 mM dithiothreitol, 40 μM YVAD-AMC or DEVD-AMC with or without 1 μM of caspase-1 and capspase-3 inhibitors (Ac-YVAD-CHO and Ac-DEVD-CHO, respectively), incubated for 2 hours at 37° C. and diluted 15-fold with 80 mM glycine-NaOH buffer (pH 10). Fluorescence of the samples was measured at ex=365 run and em=465 run and calibrated with AMC in the range of 10 to 100 nM. To measure caspase activity in control and ouabain-treated Jurkat cells, 5 ml of suspension containing ˜2×10^7 cells was transferred onto ice and sedimented. The pellet of cells was washed and treated with 0.3 ml of medium A in the same way as VSMC. Protein content was estimated by Bradford methods.

Row | SMILES | apoptosis triggered by staurosporine and okadaic acid (VSMC-E1A; VSMC-E1A, 1 mM ouabain, FIG. 2b) | Increment of chromatin fragments triggered by serum withdrawal(%) (VSMC-E1A; VSMC-E1A, 1 mM, pretreated 2 hours then 3 hours with or without calf serum, control increment taken as 100%) | Chromatin fragments (%) (VSMC-E1A; VSMC-E1A, 10% CS, 1 mM ouabain, 1 hr preincubation, 6 hours) | Chromatin fragments (%) (VSMC-E1A; VSMC-E1A, CS-free, 1 mM ouabain, 1 hr preincubation, 6 hours) | baseline and serum withdrawal-induced chromatin cleavage (VSMC-E1A; VSMC-E1A, ouabain added 1 hour before, FIG. 2a) | Chromatin fragments (%) (VSMC-E1A; ouabain-treated VSMC-E1A, 1 mM, 10% CS, medium [Na+]o=14, [K+]o=128 mM, 1 hr + 6 hours) | Chromatin fragments (%) (VSMC-E1A; ouabain-treated VSMC-E1A, 1 mM, 10% CS, medium [Na+]o=137, [K+]o=5 mM, 1 hr + 6 hours) | Chromatin fragments (%) (VSMC-E1A; ouabain-treated VSMC-E1A, 1 mM, CS-free, medium [Na+]o=14, [K+]o=128 mM, 1 hr + 6 hours) | Chromatin fragments (%) (VSMC-E1A; ouabain-treated VSMC-E1A, 1 mM, CS-free, medium [Na+]o=137, [K+]o=5 mM, 1 hr + 6 hours) | increment of caspase-3 activity triggered by Fas ligand, staurosporine and hyperosmotic shrinkage (caspase-3; ouabain) | baseline caspase-3 activity (caspase-3; pretreatment 2 hours with 1 mM ouabain (from 296±38)) | chromatin cleavage under hyperosmotic shrinkage (VSMC-E1A; control and ouabain-treated VSMC-E1A, 350 mM mannitol, 6 hr) | increase of caspase-3 activity (caspase-3) [fold] | content of chromatin fragments (VSMC-E1A; VSMC-E1A, 6 hr, serum-supplied medium, 0.25 μM staurosporine, 1 μM okadaic acid) [%]
1 | C[C@@H]1O[C@@H](O[C@H]2C[C@@H](O)[C@]3(CO)[C@H]4[C@H](O)C[C@]5(C)[C@@H](C6=CC(=O)OC6)CC[C@]5(O)[C@@H]4CC[C@]3(O)C2)[C@H](O)[C@H](O)[C@H]1O [Ouabain, 1β,3β,5,11α,14,19-hexahydroxycard 20 [22]-enolide 3-[6-deoxy-α-L-mannopyrano-sidel]] | blocked | 21 ± 3 | 1.5 ± 0.3 | 5.7 ± 0.6 | blocked baseline as well as serum withdrawal-induced chromatin cleavage | 5.0 | 1.9 | 32.0 | 6.3 | Neither ouabain nor equimolar substitution of Na^+ by K^+ in the incubation medium affected the increment of caspase-3 activity | 497±67 pmol (mg prot)^−1 hr^−1 |  |  | 
2 | OC[C@@H](O)[C@@H](O)[C@H](O)[C@H](O)CO [mannitol] |  |  |  |  |  |  |  |  |  |  |  | insensitive to hyperosmotic shrinkage | ~10 | 
3 | CN[C@@H]1C[C@H]2O[C@@](C)([C@@H]1OC)n1c3ccccc3c3c4c(c5c6ccccc6n2c5c31)C(=O)NC4 [staurosporine] |  |  |  |  |  |  |  |  |  |  |  |  | ~20 | 30.1±4.7
